Assay results from patent US20070213301A1 (ACHILLION PHARMACEUTICALS, INC., priority 2006, published 2007).

Tested on: HCV replicon
Test: HCV replicon replication assay (NPTII ELISA)
Type: cell-based, Hepatitis C virus (Huh-7 cells)
Details: Hepatitis C virus, Huh-7, 72 h, inhibition of HCV replicon replication in Huh-7 HCV replicon-containing cells, three days incubation, NPT level by ELISA; read-out: EC50
Method: Compounds claimed herein are tested for the ability to inhibit viral replication of the Hepatitis C replicon in cultured cells in which the HCV replicon construct has been incorporated. The HCV replicon system was described by Bartenschlager, et. al (Science, 285, pp. 110-113 (1999)). The replicon system is predictive of in vivo anti-HCV activity; compounds that are active in humans uniformly evidence activity in the replicon assay.
In this assay HCV replicon containing cells are treated with different concentrations of the test compound to ascertain the ability of the test compound to suppress replication of the HCV replicon. As a positive control, HCV replicon-containing cells are treated with different concentrations of interferon alpha, a known inhibitor of HCV replication. The replicon assay system includes Neomycin Phosphotransferase (NPT) as a component of the replicon itself in order to detect the transcription of replicon gene products in the host cell. Cells in which the HCV replicon is actively replicating have high levels of NPT; the level of NPT is proportional to HCV replication. […] The NPT level of each sample is measured using a captured ELISA.
The HCV replicon contains, 5′-3′, the HCV-IRES, the neomycin phosphotransferase (neo) gene, the IRES of encephalomyocarditis virus, which directs translation of HCV sequences NS3 to NS5B, and the 3′-NTR. The sequence of the HCV replicon has been deposited in GenBank (Accession no. AJ242652).
The replicon is transfected into Huh-7 cells using standard methods such as electroporation.
The cells are then seeded onto 96-well plates at a density of 6000-7500 cells/100 microliters/well (6-7.5×10^5 cells/10 ml/plate). The plates are then incubated at 37° C. in a 5% CO2 incubator.
HCV replicon-containing cells are rinsed with once PBS once; 2 mls of trypsin are then added. Cells are incubated at 37° C. in a 5% CO2 incubator for 3-5 minutes. 10 mls of complete medium is added to stop the reaction. Cells are blown gently, put into a 15 ml tube, and spun at 1200 rpm for four minutes. The trypsin/medium solution is removed and 5 mls of medium (500 ml DMEM (high glucose)) from BRL catalog #12430-054; 50 mls 10% FBS, 5% Geneticin G418 (50 mg/ml, BRL catalog #10131-035), 5 ml MEM non-essential amino acids (100× BRL #11140-050) and 5 ml pen-strep (BRL #15140-148) is added. The cells and media are mixed carefully
Cells are plated with screening medium (500 ml DMEM (BRL #21063-029), 50 ml FBS (BRL #10082-147) and 5 ml MEM non-essential amino acid (BRL #11140-050) at 6000-7500 cells/100 μl/well of 96 well plate (6-7.5×10^5 cells/10 ml/plate). Plates are placed into 37° C. 5% CO2 incubator overnight.
The following morning, drugs (test compounds or interferon alpha) are diluted in 96 well U bottom plates with media or DMSO/media, depending on the final concentration chosen for screening. Generally for 6 concentrations of each test compounds ranging from 10 micromolar to 0.03 micromolar are applied. 100 μl of the test compound dilution is placed in wells of the 96 well plate containing the HCV replicon cells. Media without drug is added to some wells as a negative controls. DMSO is known to affect cell growth. Therefore, if drugs diluted in DMSO are used, all wells, including negative control (media only) and positive control (interferon alpha) wells, must contain the same concentration of DMSO, for single dose screening. The plates are incubated at 37° C. in a humidified 5% CO2 environment for three days.
On day four, the NTPII assay is quantitated. The medium is poured from the plates and the plates are washed once in 200 μl of PBS. The PBS is then decanted and the plates tapped in a paper towel to remove any remaining PBS. Cells are fixed in situ with 100 μl/well of pre-cooled (−20° C.) methanol:acetone (1:1) and the plates are placed at −20° C. for 30 minutes.
The fixing solution is poured from the plates and the plates allowed to air-dry completely (approximately one hour). […]

`CCCCCOc1ccc(N(C(=O)C2CC2)c2nc(-c3cccnc3)cs2)cc1C(F)(F)F` [Compound 15, N-(4-(pentyloxy)-3-(trifluoromethyl)phenyl)-N-(4-(pyridin-3-yl)thiazol-2-yl)cyclopropanecarboxamide] showed an EC50 of less than 1 µM.
In the case of `CCCCCCCCOc1ccc(N(C(=O)COC(C)=O)c2nc(-c3ccc(F)c(F)c3)cs2)cc1` [Compound 57, 2-((4-(3,4-difluorophenyl)thiazol-2-yl)(4-(octyloxy)phenyl)amino)-2-oxoethyl acetate], the EC50 is reported as less than 1 µM.
`CCCCCOc1ccc(N(C(=O)C(C)C)c2nc(-c3cccnc3)cs2)cc1C(F)(F)F` [Compound 14, N-(4-(pentyloxy)-3-(trifluoromethyl)phenyl)-N-(4-(pyridin-3-yl)thiazol-2-yl)isobutyramide] gave an EC50 of less than 1 µM.
For `CCCCCOc1ccc(N(C(=O)C(=O)OC)c2nc(-c3ccc4[nH]c(=O)oc4c3)cs2)cc1C(F)(F)F` [Compound 100, methyl 2-oxo-2-((4-(2-oxo-2,3-dihydrobenzo[d]oxazol-6-yl)thiazol-2-yl)(4-(pentyloxy)-3-(trifluoromethyl)phenyl)amino)acetate], the EC50 was less than 1 µM.
`CCCCCCOc1ccc(N(C(N)=O)c2nc(-c3ccc(F)c(F)c3)cs2)cc1` [Compound 124, 1-(4-(3,4-difluorophenyl)thiazol-2-yl)-1-(4-(hexyloxy)phenyl)urea] was tested, and the EC50 was less than 1 µM.
`CCCCCCCCc1ccc(N(C(=O)OCOC(=O)C(N)C(C)C)c2nc(-c3cccnc3)c(F)s2)cc1C(F)(F)F` (stereo not drawn) [Compound 186, ((5-fluoro-4-(pyridin-3-yl)thiazol-2-yl)(4-octyl-3-(trifluoromethyl)phenyl)carbamoyloxy) methyl 2-amino-3-methylbutanoate] was tested, and the EC50 was less than 1 µM.
Work on `CCCCCCOc1ccc(N(C(N)=O)c2nc(-c3ccc(C)nc3)cs2)cc1` [Compound 143, 1-(4-(hexyloxy)phenyl)-1-(4-(6-methylpyridin-3-yl)thiazol-2-yl)urea] yielded an EC50 of 1 to 10 µM.
Work on `CCCCCOc1ccc(N(C(C)=O)c2nc(-c3cccnc3)cs2)cc1C(F)(F)F` [Compound 12, N-(4-(pentyloxy)-3-(trifluoromethyl)phenyl)-N-(4-(pyridin-3-yl)thiazol-2-yl)acetamide] yielded an EC50 of less than 1 µM.
`CCCCCN(C)c1ccc(N(C(N)=O)c2nc(-c3ccc(C)nc3)cs2)cc1C(F)(F)F` [Compound 139, 1-(4-(methyl(pentyl)amino)-3-(trifluoromethyl)phenyl)-1-(4-(6-methylpyridin-3-yl)thiazol-2-yl)urea] gave an EC50 of less than 1 µM.
In the case of `CCCCCCCCOc1ccc(N(C(=O)CO)c2nc(-c3cccnc3)cs2)cc1C(F)(F)F` [Compound 159, 2-hydroxy-N-(4-(octyloxy)-3-(trifluoromethyl)phenyl)-N-(4-(pyridin-3-yl)thiazol-2-yl)acetamide], the EC50 is reported as less than 1 µM.
`CCCCCOc1ccc(N(C(=O)COC(C)=O)c2nc(-c3cccnc3)cs2)cc1C(F)(F)F` [Compound 33, 2-oxo-2-((4-(pentyloxy)-3-(trifluoromethyl)phenyl)(4-(pyridin-3-yl)thiazol-2-yl)amino)ethyl acetate] was tested, and the EC50 was less than 1 µM.
For `CCCCCCCCOc1ccc(N(C(=O)c2cc(C)on2)c2nc(-c3ccc(Cl)s3)cs2)cc1` [Compound 89, N-(4-(5-chlorothiophen-2-yl)thiazol-2-yl)-5-methyl-N-(4-(octyloxy)phenyl)isoxazole-3-carboxamide], the EC50 was less than 1 µM.
For `CCCCCN(C)c1ccc(N(C(=O)C(=O)OC)c2nc(-c3cccnc3)cs2)cc1C(F)(F)F` [Compound 53, methyl 2-((4-(methyl(pentyl)amino)-3-(trifluoromethyl)phenyl)(4-(pyridin-3-yl)thiazol-2-yl)amino)-2-oxoacetate], the EC50 was less than 1 µM.
In the case of `CCCCCCCCOc1ccc(N(C(=O)NCC(=O)O)c2nc(-c3cccnc3)cs2)cc1C(F)(F)F` [Compound 165, 2-(3-(4-(octyloxy)-3-(trifluoromethyl)phenyl)-3-(4-(pyridin-3-yl)thiazol-2-yl)ureido)acetic acid], the EC50 is reported as less than 1 µM.
`CCCCCOc1ccc(N(C=O)c2nc(-c3cccnc3)cs2)cc1C(F)(F)F` [Compound 50, N-(4-(pentyloxy)-3-(trifluoromethyl)phenyl)-N-(4-(pyridin-3-yl)thiazol-2-yl)formamide] showed an EC50 of less than 1 µM.
Work on `CCCCCOc1ccc(N(C(N)=O)c2nc(-c3cccnc3)cs2)cc1C(F)(F)F` [Compound 49, 1-(4-(pentyloxy)-3-(trifluoromethyl)phenyl)-1-(4-(pyridin-3-yl)thiazol-2-yl)urea] yielded an EC50 of less than 1 µM.
`CCCCCCCCc1ccc(N(C(N)=O)c2nc(-c3cccnc3)c(F)s2)cc1C(F)(F)F` [Compound 178, 1-(5-fluoro-4-(pyridin-3-yl)thiazol-2-yl)-1-(4-octyl-3-(trifluoromethyl)phenyl)urea] showed an EC50 of less than 1 µM.
With `CCCCCOc1ccc(N(C(=O)C2CC2)c2nc(-c3ccc(CN(C)C)nc3)cs2)cc1C(F)(F)F` [Compound 17, N-(4-(6-((dimethylamino)methyl)pyridin-3-yl)thiazol-2-yl)-N-(4-(pentyloxy)-3-(trifluoromethyl)phenyl)cyclopropane-carboxamide] the EC50 was 1 to 10 µM.
With `CCCCOc1ccc(N(C(N)=O)c2nc(-c3ccc4c(c3)NC(=O)CO4)cs2)cc1C(F)(F)F` [Compound 134, 1-(4-butoxy-3-(trifluoromethyl)phenyl)-1-(4-(3-oxo-3,4-dihydro-2H-benzo[b][1,4]oxazin-6-yl)thiazol-2-yl)urea] the EC50 was 1 to 10 µM.
In the case of `CCCCCOc1ccc(N(C(N)=O)c2nc(-c3cccnc3)cs2)cc1F` [Compound 87, 1-(3-fluoro-4-(pentyloxy)phenyl)-1-(4-(pyridin-3-yl)thiazol-2-yl)urea], the EC50 is reported as less than 1 µM.
In the case of `CCCCCOc1ccc(N(C(C)=O)c2nc(CN(C)C)cs2)cc1C(F)(F)F` [Compound 20, N-(4-((dimethylamino)methyl)thiazol-2-yl)-N-(4-(pentyloxy)-3-(trifluoromethyl)phenyl)acetamide], the EC50 is reported as 1 to 10 µM.
In the case of `Cc1ccc(-c2csc(N(C(N)=O)c3ccc(OCC4CCCCC4)c(F)c3)n2)cn1` [Compound 114, 1-(4-(cyclohexylmethoxy)-3-fluorophenyl)-1-(4-(6-methylpyridin-3-yl)thiazol-2-yl)urea], the EC50 is reported as 1 to 10 µM.
For `O=C(O)CCC(=O)N(c1ccc(OCCCCc2cccs2)c(C(F)(F)F)c1)c1nc(-c2cccnc2)c(F)s1` [Compound 174, 4-((5-fluoro-4-(pyridin-3-yl)thiazol-2-yl)(4-(4-(thiophen-2-yl)butoxy)-3-(trifluoromethyl)phenyl)amino)-4-oxobutanoic acid], the EC50 was less than 1 µM.
`CCCCOc1ccc(N(C(N)=O)c2nc(-c3ccccn3)cs2)cc1C(F)(F)F` [Compound 103, 1-(4-butoxy-3-(trifluoromethyl)phenyl)-1-(4-(pyridin-2-yl)thiazol-2-yl)urea] gave an EC50 of less than 1 µM.
`CCCCCCCCOc1ccc(N(C(=O)OC)c2nc(-c3ccc(F)cc3)cs2)cc1` [Compound 48, methyl 4-(4-fluorophenyl)thiazol-2-yl(4-(octyloxy)phenyl)carbamate] gave an EC50 of 1 to 10 µM.
`CCCCCOc1ccc(N(C)c2nc(C(=O)Nc3cccnc3)cs2)cc1C(F)(F)F` [Compound 6, 2-(methyl(4-(pentyloxy)-3-(trifluoromethyl)phenyl)amino)-N-(pyridin-3-yl)thiazole-4-carboxamide] gave an EC50 of 1 to 10 µM.
Compound `CCCCCOc1ccc(N(CCN(C)C)c2nc(-c3cccnc3)cs2)cc1C(F)(F)F` [Compound 11, N1,N1-dimethyl-N2-(4-(pentyloxy)-3-(trifluoromethyl)phenyl)-N2-(4-(pyridin-3-yl)thiazol-2-yl)ethane-1,2-diamine] has an EC50 of 1 to 10 µM.
